Where a name gives a salt, the structure may show the parent alone.
What was measured:
human His-PIM2 [23-299] = biological target: T1, human His-PIM2 [23-299] (Homo sapiens, UniProt Q9P1W9); assay: PIM2 in-vitro mobility shift assay (Caliper LC3000, FL-Ahx-Bad phosphorylation); format: biochemical; settings: 1.5 h; percent inhibition at 0.3 uM compound; read-out: PIM2 % I at 0.3 uM
T1 construct: purified human His-PIM2 [23-299] enzyme; His (N); host or cells: E. coli

human His-PIM1 [2-313] = biological target: T2, human His-PIM1 [2-313] (Homo sapiens, UniProt P11309); assay: PIM1 in-vitro mobility shift assay (Caliper LC3000, FL-Ahx-Bad phosphorylation); format: biochemical; settings: 1.5 h; percent inhibition at 0.3 uM compound; read-out: PIM1 % I at 0.3 uM
T2 construct: purified human His-PIM1 [2-313] enzyme; His (N); purchased University of Dundee, Scotland; host or cells: baculovirus system
T2 sequence (P11309 2-313): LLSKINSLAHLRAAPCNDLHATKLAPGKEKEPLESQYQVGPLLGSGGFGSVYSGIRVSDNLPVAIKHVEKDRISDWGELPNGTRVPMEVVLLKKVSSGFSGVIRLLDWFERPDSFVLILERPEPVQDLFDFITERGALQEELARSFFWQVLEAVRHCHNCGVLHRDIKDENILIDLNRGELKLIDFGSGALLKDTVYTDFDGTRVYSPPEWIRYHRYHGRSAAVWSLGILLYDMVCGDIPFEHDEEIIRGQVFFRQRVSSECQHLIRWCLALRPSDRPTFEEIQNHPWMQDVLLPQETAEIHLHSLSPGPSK
Method in brief: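 Compound preincubated 20 min at 25 °C with 2.4 nM PIM1, 3.6 µM FL-Ahx-Bad peptide and 240 µM ATP (1.2× mix concentrations). Reaction started with 24 mM MgCl2 mix, run 90 min at 25 °C, EDTA-stopped. Phospho/unphospho peptide separated by microfluidic mobility shift; percent inhibition from ratiometric turnover.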

T1 sequence (Q9P1W9 23-299): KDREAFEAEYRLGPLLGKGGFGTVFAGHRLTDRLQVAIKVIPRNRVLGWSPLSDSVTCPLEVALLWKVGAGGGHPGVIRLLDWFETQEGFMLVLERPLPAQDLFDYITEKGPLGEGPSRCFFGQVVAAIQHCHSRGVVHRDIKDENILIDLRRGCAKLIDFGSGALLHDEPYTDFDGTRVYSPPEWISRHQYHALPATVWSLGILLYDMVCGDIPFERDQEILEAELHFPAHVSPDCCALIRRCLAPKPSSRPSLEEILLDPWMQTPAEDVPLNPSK

inhibition at 0.3 µM (human His-PIM2 [23-299])	inhibition at 0.3 µM (human His-PIM1 [2-313])	SMILES
28.1%	81.8%	COc1ccc(OCCN2CCCCC2)c(/C=C2\SC(=O)NC2=O)c1 [Example 61, (Z)-5-(5-methoxy-2-(2-(piperidin-1-yl)ethoxy)benzylidene)thiazolidine-2,4-dione]
17.5%	62.1%	COc1ccc(OCCN2CCOCC2)c(/C=C2\SC(=O)NC2=O)c1 [Example 62, (Z)-5-(5-methoxy-2-(2-morpholinoethoxy)benzylidene)thiazolidine-2,4-dione]
21.5%	79.2%	CCN(CC)CCOc1ccc(OC)cc1/C=C1\SC(=O)NC1=O [Example 63, (Z)-5-(2-(2-(diethylamino)ethoxy)-5-methoxybenzylidene)thiazolidine-2,4-dione]
25.7%	86.5%	CCN(CC)CCOc1ccccc1/C=C1\SC(=O)NC1=O [Example 64, (Z)-5-(2-(2-(diethylamino)ethoxy)benzylidene)thiazolidine-2,4-dione]
18.9%	45.3%	COc1cc(/C=C2\SC(=O)NC2=O)c(-c2cccnc2)cc1OC [Example 65, (Z)-5-(4,5-dimethoxy-2-(pyridin-3-yl)benzylidene)thiazolidine-2,4-dione]
20.9%	50.3%	COc1cc(/C=C2\SC(=O)NC2=O)c(-c2ccncc2)cc1OC [Example 66, (Z)-5-(4,5-dimethoxy-2-(pyridin-4-yl)benzylidene)thiazolidine-2,4-dione]
9%	41.9%	O=C1NC(=O)/C(=C/c2n[nH]c3ccccc23)S1 [Example 68, (Z)-5-((1H-indazol-3-yl)methylene)thiazolidine-2,4-dione]
< 5%	< 5%	O=C1NC(=O)/C(=C/c2ccc[nH]c2=O)S1 [Example 70, (Z)-5-((2-oxo-1,2-dihydropyridin-3-yl)methylene)thiazolidine-2,4-dione]
< 5%	< 5%	O=C1NC(=O)/C(=C/c2cn[nH]c2)S1 [Example 71, (Z)-5-((1H-pyrazol-4-yl)methylene)thiazolidine-2,4-dione]
< 5%	< 5%	O=C1NC(=O)/C(=C/c2ccncc2)S1 [Example 72, (Z)-5-(pyridin-4-ylmethylene)thiazolidine-2,4-dione]
< 5%	< 5%	Cn1nnc2cc(/C=C3\SC(=O)NC3=O)ccc21 [Example 73, (5Z)-5-[(1-methyl-1H-1,2,3-benzotriazol-5-yl)methylene]-1,3-thiazolidine-2,4-dione]
69.5%	> 95%	Cn1ccc2ccc(/C=C3\SC(=O)NC3=O)cc21 [Example 75, (5Z)-5-[(1-methyl-1H-indol-6-yl)methylene]-1,3-thiazolidine-2,4-dione]
27.6%	59.6%	Cn1ccc2cc(/C=C3\SC(=O)NC3=O)ccc21 [Example 76, (5Z)-5-[(1-methyl-1H-indol-5-yl)methylene]-1,3-thiazolidine-2,4-dione]
22.7%	51.2%	O=C1NC(=O)/C(=C/c2ccc3ncccc3c2)S1 [Example 77, (5Z)-5-(quinolin-6-ylmethylene)-1,3-thiazolidine-2,4-dione trifluoroacetate]
30%	71.4%	O=C1NC(=O)/C(=C/c2ccc3[nH]ccc3c2)S1 [Example 78, (5Z)-5-(1H-indol-5-ylmethylene)-1,3-thiazolidine-2,4-dione]
60.7%	90%	O=C1NC(=O)/C(=C/c2ccc3cc[nH]c3c2)S1 [Example 79, (5Z)-5-(1H-indol-6-ylmethylene)-1,3-thiazolidine-2,4-dione trifluoroacetate]
58.2%	87.4%	O=C1NC(=O)/C(=C/c2ccccc2N2CCOCC2)S1 [Example 82, (5Z)-5-(2-morpholin-4-ylbenzylidene)-1,3-thiazolidine-2,4-dione]

Reference: patent publication US8901307B2, “Chemical compounds 251” (AstraZeneca AB, priority 2008, dated 2014)
